{"source": "paper PMC10247784", "about": "“Physiological activation of human and mouse bitter taste receptors by bile acids” (Communications Biology, 2023)", "molecular_target": "T1, mouse Tas2r108 (Mus musculus, UniProt Q9JKT3)", "T1 construct": "expressed in transfected cells; host or cells: HEK293T-Gα16gust44", "T1 sequence (Q9JKT3 1-297)": "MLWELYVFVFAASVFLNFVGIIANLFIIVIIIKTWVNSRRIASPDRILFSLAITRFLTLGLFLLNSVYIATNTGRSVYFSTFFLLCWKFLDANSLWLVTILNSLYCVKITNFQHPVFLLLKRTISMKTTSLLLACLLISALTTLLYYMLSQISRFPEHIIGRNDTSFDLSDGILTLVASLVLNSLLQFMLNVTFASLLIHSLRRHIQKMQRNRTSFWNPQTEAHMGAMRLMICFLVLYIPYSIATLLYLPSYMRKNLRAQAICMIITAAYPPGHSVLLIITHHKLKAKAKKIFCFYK", "assay": "Calcium imaging assay (FLIPR), HEK293T-Gα16gust44 cells transfected with mouse Tas2r108", "type": "cell-based", "procedure,_shortened": "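HEK293T-Gα16gust44 cells transiently transfected with the bitter-taste receptor, loaded next day with Fluo-4-AM plus 2.5 mM probenecid, and challenged with bile acids on FLIPR Tetra. Signals mock-subtracted, expressed as ΔF/F vs buffer.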", "data": [{"smiles": "C[C@H](CCC(=O)NCCS(=O)(=O)O)[C@H]1CC[C@H]2[C@@H]3CC[C@@H]4C[C@H](O)CC[C@]4(C)[C@H]3CC[C@]12C", "note": "[Taurolithocholic Acid, taurolithocholic acid]", "values": [{"measurement": "RLU", "setting": "Time 0 s", "result": 0, "unit": "RLU"}, {"measurement": "RLU", "setting": "Time 2 s", "result": 0.6757, "unit": "RLU"}, {"measurement": "RLU", "setting": "Time 4 s", "result": -5.736, "unit": "RLU"}, {"measurement": "RLU", "setting": "Time 6 s", "result": 6.046, "unit": "RLU"}, {"measurement": "RLU", "setting": "Time 8 s", "result": 39.2838, "unit": "RLU"}, {"measurement": "RLU", "setting": "Time 12 s", "result": 8.803, "unit": "RLU"}, {"measurement": "RLU", "setting": "Time 14 s", "result": 5.215, "unit": "RLU"}, {"measurement": "RLU", "setting": "Time 16 s", "result": -9.6707, "unit": "RLU"}, {"measurement": "RLU", "setting": "Time 18 s", "result": -10.699, "unit": "RLU"}, {"measurement": "RLU", "setting": "Time 18.781 s", "result": 51.1832, "unit": "RLU"}, {"measurement": "RLU", "setting": "Time 20.781 s", "result": 31.0896, "unit": "RLU"}, {"measurement": "RLU", "setting": "Time 22.781 s", "result": 17.366, "unit": "RLU"}, {"measurement": "RLU", "setting": "Time 24.781 s", "result": 13.0906, "unit": "RLU"}, {"measurement": "RLU", "setting": "Time 26.781 s", "result": 51.6272, "unit": "RLU"}, {"measurement": "RLU", "setting": "Time 28.781 s", "result": 63.3328, "unit": "RLU"}, {"measurement": "RLU", "setting": "Time 30.781 s", "result": 109.429, "unit": "RLU"}, {"measurement": "RLU", "setting": "Time 32.781 s", "result": 151.07, "unit": "RLU"}, {"measurement": "RLU", "setting": "Time 34.781 s", "result": 184.905, "unit": "RLU"}, {"measurement": "RLU", "setting": "Time 36.781 s", "result": 210.816, "unit": "RLU"}, {"measurement": "RLU", "setting": "Time 38.781 s", "result": 242.967, "unit": "RLU"}, {"measurement": "RLU", "setting": "Time 40.781 s", "result": 265.916, "unit": "RLU"}, {"measurement": "RLU", "setting": "Time 42.781 s", "result": 261.677, "unit": "RLU"}, {"measurement": "RLU", "setting": "Time 44.781 s", "result": 303.058, "unit": "RLU"}, {"measurement": "RLU", "setting": "Time 46.781 s", "result": 324.099, "unit": "RLU"}, {"measurement": "RLU", "setting": "Time 48.781 s", "result": 311.969, "unit": "RLU"}, {"measurement": "RLU", "setting": "Time 50.781 s", "result": 342.074, "unit": "RLU"}, {"measurement": "RLU", "setting": "Time 52.781 s", "result": 343.185, "unit": "RLU"}, {"measurement": "RLU", "setting": "Time 54.781 s", "result": 378.711, "unit": "RLU"}, {"measurement": "RLU", "setting": "Time 56.781 s", "result": 389.7, "unit": "RLU"}, {"measurement": "RLU", "setting": "Time 58.781 s", "result": 401.227, "unit": "RLU"}, {"measurement": "RLU", "setting": "Time 60.781 s", "result": 410.325, "unit": "RLU"}, {"measurement": "RLU", "setting": "Time 62.781 s", "result": 416.305, "unit": "RLU"}, {"measurement": "RLU", "setting": "Time 64.781 s", "result": 417.574, "unit": "RLU"}, {"measurement": "RLU", "setting": "Time 66.781 s", "result": 434.462, "unit": "RLU"}, {"measurement": "RLU", "setting": "Time 68.781 s", "result": 456.387, "unit": "RLU"}, {"measurement": "RLU", "setting": "Time 70.781 s", "result": 443.293, "unit": "RLU"}, {"measurement": "RLU", "setting": "Time 72.781 s", "result": 455.898, "unit": "RLU"}, {"measurement": "RLU", "setting": "Time 74.781 s", "result": 461.633, "unit": "RLU"}, {"measurement": "RLU", "setting": "Time 76.781 s", "result": 455.071, "unit": "RLU"}, {"measurement": "RLU", "setting": "Time 78.781 s", "result": 466.188, "unit": "RLU"}, {"measurement": "RLU", "setting": "Time 80.781 s", "result": 477.183, "unit": "RLU"}, {"measurement": "RLU", "setting": "Time 82.781 s", "result": 506.736, "unit": "RLU"}, {"measurement": "RLU", "setting": "Time 84.781 s", "result": 503.228, "unit": "RLU"}, {"measurement": "RLU", "setting": "Time 86.781 s", "result": 489.189, "unit": "RLU"}, {"measurement": "RLU", "setting": "Time 88.781 s", "result": 473.872, "unit": "RLU"}, {"measurement": "RLU", "setting": "Time 90.781 s", "result": 497.168, "unit": "RLU"}, {"measurement": "RLU", "setting": "Time 92.781 s", "result": 472.229, "unit": "RLU"}, {"measurement": "RLU", "setting": "Time 94.781 s", "result": 481.838, "unit": "RLU"}, {"measurement": "RLU", "setting": "Time 96.781 s", "result": 467.082, "unit": "RLU"}, {"measurement": "RLU", "setting": "Time 98.781 s", "result": 510.678, "unit": "RLU"}, {"measurement": "RLU", "setting": "Time 100.781 s", "result": 498.898, "unit": "RLU"}, {"measurement": "RLU", "setting": "Time 102.781 s", "result": 493.381, "unit": "RLU"}, {"measurement": "RLU", "setting": "Time 104.781 s", "result": 508.478, "unit": "RLU"}, {"measurement": "RLU", "setting": "Time 106.781 s", "result": 488.526, "unit": "RLU"}, {"measurement": "RLU", "setting": "Time 108.781 s", "result": 487.641, "unit": "RLU"}, {"measurement": "RLU", "setting": "Time 110.781 s", "result": 528.304, "unit": "RLU"}, {"measurement": "RLU", "setting": "Time 112.781 s", "result": 500.584, "unit": "RLU"}, {"measurement": "RLU", "setting": "Time 114.781 s", "result": 484.964, "unit": "RLU"}, {"measurement": "RLU", "setting": "Time 116.781 s", "result": 486.198, "unit": "RLU"}, {"measurement": "RLU", "setting": "Time 118.781 s", "result": 494.318, "unit": "RLU"}, {"measurement": "RLU", "setting": "Time 120.781 s", "result": 504.713, "unit": "RLU"}, {"measurement": "RLU", "setting": "Time 122.781 s", "result": 501.616, "unit": "RLU"}, {"measurement": "RLU", "setting": "Time 124.781 s", "result": 482.612, "unit": "RLU"}, {"measurement": "RLU", "setting": "Time 126.781 s", "result": 503.591, "unit": "RLU"}, {"measurement": "RLU", "setting": "Time 128.781 s", "result": 486.957, "unit": "RLU"}, {"measurement": "RLU", "setting": "Time 130.781 s", "result": 500.459, "unit": "RLU"}, {"measurement": "RLU", "setting": "Time 132.781 s", "result": 472.597, "unit": "RLU"}, {"measurement": "RLU", "setting": "Time 134.781 s", "result": 498.526, "unit": "RLU"}, {"measurement": "RLU", "setting": "Time 136.781 s", "result": 501.497, "unit": "RLU"}, {"measurement": "RLU", "setting": "Time 137.547 s", "result": 471.412, "unit": "RLU"}, {"measurement": "RLU", "setting": "Time 143.547 s", "result": 482.177, "unit": "RLU"}, {"measurement": "RLU", "setting": "Time 149.547 s", "result": 466.386, "unit": "RLU"}, {"measurement": "RLU", "setting": "Time 155.547 s", "result": 451.788, "unit": "RLU"}, {"measurement": "RLU", "setting": "Time 161.547 s", "result": 449.152, "unit": "RLU"}, {"measurement": "RLU", "setting": "Time 167.547 s", "result": 425.382, "unit": "RLU"}, {"measurement": "RLU", "setting": "Time 173.547 s", "result": 442.283, "unit": "RLU"}, {"measurement": "RLU", "setting": "Time 179.547 s", "result": 425.607, "unit": "RLU"}, {"measurement": "RLU", "setting": "Time 185.547 s", "result": 410.079, "unit": "RLU"}, {"measurement": "RLU", "setting": "Time 191.547 s", "result": 397.165, "unit": "RLU"}, {"measurement": "RLU", "setting": "Time 197.547 s", "result": 392.705, "unit": "RLU"}, {"measurement": "RLU", "setting": "Time 203.547 s", "result": 382.875, "unit": "RLU"}, {"measurement": "RLU", "setting": "Time 209.547 s", "result": 387.748, "unit": "RLU"}, {"measurement": "RLU", "setting": "Time 215.547 s", "result": 381.118, "unit": "RLU"}, {"measurement": "RLU", "setting": "Time 221.547 s", "result": 374.673, "unit": "RLU"}, {"measurement": "RLU", "setting": "Time 227.547 s", "result": 340.738, "unit": "RLU"}, {"measurement": "RLU", "setting": "Time 233.547 s", "result": 357.908, "unit": "RLU"}, {"measurement": "RLU", "setting": "Time 239.547 s", "result": 329.058, "unit": "RLU"}, {"measurement": "RLU", "setting": "Time 245.547 s", "result": 312.353, "unit": "RLU"}, {"measurement": "RLU", "setting": "Time 293.547 s", "result": 280.532, "unit": "RLU"}, {"measurement": "RLU", "setting": "Time 299.547 s", "result": 302.8, "unit": "RLU"}, {"measurement": "Activation threshold concentration Tas2r108", "setting": "p < 0.01 vs empty vector", "result": 1, "unit": "µM"}, {"measurement": "RLU", "setting": "time 305.547 s", "result": 271.906, "unit": "RLU"}, {"measurement": "RLU", "setting": "time 311.547 s", "result": 293.129, "unit": "RLU"}, {"measurement": "RLU", "setting": "time 317.547 s", "result": 296.196, "unit": "RLU"}, {"measurement": "RLU", "setting": "time 323.547 s", "result": 325.759, "unit": "RLU"}, {"measurement": "RLU", "setting": "time 329.547 s", "result": 278.402, "unit": "RLU"}, {"measurement": "RLU", "setting": "time 335.547 s", "result": 309.885, "unit": "RLU"}, {"measurement": "RLU", "setting": "time 341.547 s", "result": 315.03, "unit": "RLU"}, {"measurement": "RLU", "setting": "time 347.547 s", "result": 300.184, "unit": "RLU"}, {"measurement": "RLU", "setting": "time 353.547 s", "result": 294.817, "unit": "RLU"}, {"measurement": "RLU", "setting": "time 359.547 s", "result": 274.663, "unit": "RLU"}]}]}
